Data taken from publication PMC12290687, “Phenotypic Screening of the MMV Global Health Priority Box Identifies Selective Compounds with Anti-Toxoplasma gondii Activity” (ACS Omega, 2025).
Like-named read-outs stand apart in the source and are kept apart here.

Key:
[1] = test system: T. gondii intracellular tachyzoites; test: microbe, parasite or virus in culture; type: cell-based, Toxoplasma gondii RH-2F1; conditions: half effective concentration against T. gondii intracellular tachyzoites in HFF, MOI 1:1, 72 h, duplicates in three independent experiments
Procedure: (§1) Toxoplasma gondii RH-2F1 tachyzoites, which express β-galactosidase, were maintained in human foreskin fibroblasts (HFFs). HFFs were cultured in Dulbecco’s Modified Eagle Medium (DMEM) supplemented with 10% fetal bovine serum (FBS), 2 mM L-glutamine, and 40 μg/mL gentamicin (referred to as D10) and incubated at 37 °C in a 5% CO2 humidified atmosphere. For infection assays, confluent monolayers were maintained in DMEM with 2% FBS (D2) prior to parasite inoculation.
(§2) For in vitro assays in 96-well plates, HFFs were seeded at 5 × 10^3 cells/well in the D10 medium and incubated for 12–16 h to allow adherence. […] For antiparasitic assays, HFFs were infected with RH-2F1 tachyzoites at a multiplicity of infection (MOI) of 1:1 for 3 h.
Parasite proliferation was assessed by quantifying β-galactosidase activity, as previously described. Briefly, after the 72 h incubation, cells were lysed in 100 μL of lysis buffer (100 mM HEPES pH 7.5, 1 mM MgSO4, 0.1% Triton X-100, 5 mM DTT) for 15 min at room temperature. […] Following a 30 min incubation at 37 °C, absorbance was measured at 570 nm using a Varioskan LUX microplate reader (Thermo Scientific). Each assay included viability controls (untreated infected cells), solvent controls (1% DMSO), a positive control (1 μM pyrimethamine), and experimental blanks (no cells). All conditions were tested in two biological replicates in three independent experiments.
Compounds from the GHPB library were screened at a final concentration of 1 μM in infected HFF monolayers, using the β-galactosidase assay as a readout for parasite viability after 72 h.

[2] = test system: human foreskin fibroblasts (HFF); test: Cytotoxicity assay (resazurin reduction) in uninfected HFFs; type: cell-based; conditions: half cytotoxic concentration against HFF, 72 h, highest concentration tested 50 μM
Procedure: as §1, §2
(§3) The resazurin assay was used to evaluate the compound cytotoxicity in uninfected HFFs. Following 72 h treatment, 100 μM resazurin was added to each well and incubated for 4 h at 37 °C. Fluorescence was measured using excitation/emission wavelengths of 565/590 nm. Controls included untreated cells (viability control), 1% DMSO (solvent control), 50 μM pyrimethamine (reference drug), and blank wells (no cells). Each condition was tested in duplicate in three independent experiments.

VERO/RAW cells = test system: VERO/RAW cells; parameters: method as in Tali et al.; conditions: ref Tali et al.; cited from earlier work
[3] = test system: P. falciparum ring stages; conditions: literature report, reference mark not given; cited from earlier work
[4] = Cytotoxicity assay (resazurin reduction) in uninfected HFFs; type: cell-based, human; conditions: human
Procedure: as §1, §2, §3

H. contortus = test system: H. contortus; parameters: method as in Shanley et al. (2024); conditions: ref Shanley et al. (2024); cited from earlier work
HEK293 cell line = test system: HEK293 cell line; parameters: method as in Timoumi et al.; conditions: ref Timoumi et al.; cited from earlier work
[5] = parameters: method as in Timoumi et al.; conditions: doses of 350–500 mg/kg; ref Timoumi et al.; cited from earlier work
HepG2 cell line = test system: HepG2 cell line; parameters: method as in Timoumi et al.; conditions: ref Timoumi et al.; cited from earlier work
Plasmodium liver stages = conditions: literature report, reference mark not given; cited from earlier work
[6] = uninfected human foreskin fibroblasts (HFF), half cytotoxic concentration against HFF, 72 h, highest concentration tested 50 μM, read-out: CC50 (μM) ± SD

Row | Structure (SMILES) | EC50 [1] [µM] | CC50 [2] [µM] | EC50 ([1]; Toxoplasma gondii) [µM] | CC50 at 72 h [4, 6] [µM] | also measured
1 | O=C(Nc1ccc(Cl)c(C(F)(F)F)c1)Nc1ccc(Cl)c(C(F)(F)F)c1 [MMV027339] | 0.5 ± 0.02 | 5.51 ± 0.86 |  |  | 
2 | O=C(Nc1ncccc1O)c1ccc(Cn2cccn2)cc1 [MMV1266067] | 0.73 ± 0.13 | > 50 |  |  | 
3 | CO/C=C(/C(=O)OC)c1ccccc1COc1c(C)c(-c2ccc(C)cc2C)nn1C [MMV1794211] |  |  | 0.01 ± 0.01 |  | CC50 (VERO/RAW cells): > 10000 nM
4 | CN(C)C1CC(NC(=O)c2ccc(Nc3nccc(-c4ccc(Cl)c(C(F)(F)F)c4)n3)cc2)C1 (stereo not shown) [MMV884814] | 0.76 ± 0.06 | 4.1 ± 1.18 |  |  | 
5 | O=C(Nc1ncccc1O)c1ccc(N2CCOCC2)nc1 [MMV1103183] | 0.72 ± 0.39 | > 50 |  |  | 
6 | CCOc1ccccc1NC(=O)Cn1c(=O)n(Cc2ccccc2)c(=O)c2c(C)c(C(=O)N(C)C)sc21 [MMV006430] |  |  | 0.3 ± 0.03 | > 50 | time to activity against P. falciparum ring stages (fast-acting) [3]: under 65 h
7 | Cn1c(O)c(C(=O)Nc2ccc(Cl)c(Cl)c2)c(=O)n(C)c1=O [MMV1634081] | 0.52 ± 0.01 | 30.8 ± 4.55 |  |  | 
8 | COc1cc(/C=N/c2c(SC(F)(F)F)c(C#N)nn2-c2c(Cl)cc(C(F)(F)F)cc2Cl)ccc1O [MMV1794214, Vaniliprole] |  |  | 0.07 ± 0.04 |  | effect on H. contortus (H. contortus): impairs motility and larval development; CC50 at 72 h [4]: > 50 µM
9 | O=C(NC(=O)c1ccccc1Cl)Nc1ccc(OC(F)(F)F)cc1 [MMV689404, Triflumuron] |  |  | 0.49 ± 0.03 |  | CC50 (HEK293 cell line): 200000 nM; in vivo toxicity finding [5]: hepatotoxicity and oxidative stress; CC50 (HepG2 cell line): 120000 nM; CC50 at 72 h ([4]; half cytotoxic concentration against HFF, 72 h, highest concentration tested 50 μM, read-out: CC50 (μM) ± SD): > 50 µM
10 | Cn1ccnc1SCC(=O)Nc1ccc(C(=O)Nc2ncccc2O)cc1 [MMV1267536] |  |  | 0.19 ± 0.03 | 29.2 ± 2.79 | activity against Plasmodium liver stages (Plasmodium liver stages): activity
11 | O=C(Nc1ncccc1O)c1ccc(S(=O)(=O)NCCc2cccs2)cc1 [MMV1435700] | 0.34 ± 0.08 | 20 ± 3.8 |  |  | 
12 | CCc1nc(N)nc(N)c1-c1ccc(Cl)cc1 [Pyrimethamine, reference compound] |  |  | 0.38 ± 0.03 | > 50 | 
13 | CS(=O)(=O)c1ccc(-c2cnn3c2NC(c2cccc(S(=O)(=O)C4CC4)c2)CC3)cc1 (stereo not shown) [MMV674132] |  |  | 0.19 ± 0.04 | > 50 | time to activity against P. falciparum ring stages (fast-acting) [3]: under 65 h; activity against Plasmodium liver stages (Plasmodium liver stages): activity
